Data on four compounds can be found in US20150291547A1, “SMALL MOLECULES FOR EXTENDING THE WELL BEING OF CELLS AND METHODS OF USE THEREOF” (NANYANG POLYTECHNIC, priority 2011, published 2015).

The subject of assay [1] is hTERT promoter relative to CMV promoter. The assay can be described thus: Specificity check: hTERT promoter relative to CMV promoter driven SEAP in HepG2 cells. It counts as cell-based, human. Particulars: for Average phTERT/pCMV ratio: 20 μg/ml, 16 hours, ± SE, n = 3; for specificity in activating hTERT expression: judged from average phTERT/pCMV ratio. As to the method:
(§1) “SEAP” stands for secreted alkaline phosphatase enzyme. SEAP was used as a reporter system to monitor the transcriptional activity of hTERT. Here, about 10,000 cells per well were grown in 96-well plates and incubated at 37° C. for 22 hours. Varying types and amounts of natural compounds were added and cells were incubated for another 16 hours. Culture media were collected and heated at 65° C. for 10 mins to inactivate heat labile phosphatases. An equal amount of SEAP buffer (2M diethanolamine, 1 mM MgCl2, and 20 mM L-homoarginine), was added to the media and p-nitrophenyl phosphate was added to a final concentration of 12 mM. Absorbance at 405 nm was taken, and the percentage change in absorbance was calculated.
(§2) One of the plasmids contains the 5′ upstream hTERT promoter region followed by the reporter gene, the SEAP gene, while the other plasmid contains the CMV promoter region controlling the expression of the SEAP gene.
(§3) Each plasmid was then individually transfected into HepG2 cells and stable cells lines were established by selection on G418 (1 mg/ml). Stable clones of from each plasmid transfected cell line was established and each clone was propagated and preserved under liquid nitrogen for long term storage prior to use
(§4) The newly established HepG2-pTERT-SEAP and HepG2-pCMV-SEAP stable cell lines were then used for screening for inhibitors or activators of human telomerase expression.
HepG2-pCMV-SEAP serves as a positive control to ensure that SEAP is always secreted by cells harbouring this plasmid. It also serves as a specificity control as any small molecules that stimulate or inhibit only telomerase expression identified using the HepG2-pTERT-SEAP cells screening should show little to no increase in SEAP activity.
HepG2-phTERT-SEAP cells were grown for 22 hours in M199 medium supplemented with 10% FBS. The three compounds (20 μg/ml) specified above were then added and incubated for another 16 hours. After 16 hours, SEAP assay was conducted in accordance to the protocol described by Huang et al. (2003). Concurrently, HepG2-pCMV-SEAP cells were also subjected to the compounds and results were also collected. The results obtained were as shown in Table 1 below which indicate the change in hTERT expression from n=3 independent experiments.

Assay [2] relates to hTERT expression (hTERT promoter). Nature of the assay: HepG2-phTERT-SEAP reporter assay (SEAP activity as measure of hTERT expression). It counts as cell-based, human. Particulars: for increase in hTERT expression: 16 hours; for average increase in hTERT expression: 20 μg/ml, 16 hours incubation, HepG2-hTERT reporter cell line, n=5 (FIG. 1). Here is the method: NPL which consists of a total of 480 different pure natural product compounds.
as §1
An increase in SEAP activity detected via the utilization of a substrate, translates to an increase in hTERT expression.
Cell lines suitable for use in the assay were prepared from ATTC No. HB-8065 Hep G2 (Hepatocellular carcinoma, human). The Hep G2 cell line was isolated from a liver biopsy of a person with a well differentiated hepatocellular carcinoma. These cells are epithelial in morphology. These cells secrete a variety of major plasma proteins e.g., alpha-fetoprotein (alpha fetoprotein); albumin; alpha2 macroglobulin (alpha-2-macroglobulin); alpha1 antitrypsin (alpha-1-antitrypsin); transferrin; alpha1 antichymotrypsin; (alpha-1-antichymotrypsin); haptoglobin; ceruloplasmin; plasminogen; complement (C4); C3 activator; fibrinogen; alpha1 acid glycoprotein (alpha-1 acid glycoprotein); alpha2 HS glycoprotein (alpha-2-HS-glycoprotein); beta lipoprotein (beta-lipoprotein); retinol binding protein (retinol-binding protein). The cells are also responsive to stimulation with human growth hormone. HepG2 cells and its derivatives are commonly used as a model system for studies of liver metabolism and toxicity of xenobiotics, the detection of cytoprotective, anti (environmental and dietary) genotoxic and cogenotoxic agents, understanding hepatocarcinogenesis, and for drug targeting studies. HepG2 cells are also employed in trials with bio-artificial liver devices.
as §2, §3, §4
An increase in SEAP activity indicates an increase in hTERT expression and a decrease in SEAP activity indicates a decrease in hTERT expression.
HepG2-phTERT-SEAP cells were grown for 22 hours in M199 medium supplemented with 10% FBS. The three compounds, 7E (P1), 8H(P1) and 11E(P2) (20 μg/ml) specified above were added and incubated for another 16 hours. After 16 hours, SEAP assay was conducted in accordance to the protocol described by Huang et al. (2003).

The mark [3] stands for this setting: 1.25ug/ml, above untreated cells.
The mark [4] stands for this setting: 20 ug/ml, vs 1% DMSO control wells.
[5] abbreviates: 100 ug/ml, vs 1% DMSO control wells.

In the case of `Cc1ccc(C(=O)Nc2ccc(S(=O)(=O)O)c3cc(S(=O)(=O)O)cc(S(=O)(=O)O)c23)cc1NC(=O)c1cccc(NC(=O)Nc2cccc(C(=O)Nc3cc(C(=O)Nc4ccc(S(=O)(=O)O)c5cc(S(=O)(=O)O)cc(S(=O)(=O)O)c45)ccc3C)c2)c1` [Suramin, reference compound], the “Average phTERT/pCMV ratio” value in assay [1] was determined as 1.16 ± 0.11.
As to `COc1cc2ccc(=O)oc2cc1O` [11E, Plate 2, 7-hydroxy-6-methoxychromen-2-one], the “increase in hTERT expression” value is listed as 4.3% in assay [2] (setting [3]), 54.2% in assay [2] (setting [4]) and 225.8% in assay [2] (setting [5]). In addition, the “average increase in hTERT expression” value in assay [2] is reported as 57.99%. Moreover, the “Average phTERT/pCMV ratio” value in assay [1] turned out to be 2.01 ± 0.01. Besides, in assay [1], the “specificity in activating hTERT expression” value (“specificity” for short) is given as “highly specific”.
Take `O=c1cc(-c2ccc(O)c(O)c2)oc2cc(O[C@@H]3O[C@H](CO)[C@@H](O)[C@H](O)[C@H]3O)cc(O)c12` [7E, Plate 1, 2-(3,4-dihydroxyphenyl)-5-hydroxy-7-[3,4,5-trihydroxy-6-(hydroxymethyl)(2H-3,4,5,6-tetrahydropyran-2-yloxy)]chromen-4-one]: the “increase in hTERT expression” value in assay [2] (setting [3]) is given as 12.3%; in assay [2] (setting [4]) it was 34.7%; in assay [2] (setting [5]) it was 167.0%. The “average increase in hTERT expression” value in assay [2] is 29.42%. In assay [1], the “Average phTERT/pCMV ratio” value is listed as 1.08 ± 0.04. Besides, the “specificity” value in assay [1] is “only mildly specific”.
For `COc1cc2ccc(=O)oc2c(O)c1OCC=C(C)C` [8H, Plate 1, 8-hydroxy-6-methoxy-7-(3-methylbut-2-enyloxy) chromen-2-one], the results for the “increase in hTERT expression” value in assay [2] (setting [3]), in assay [2] (setting [4]) and in assay [2] (setting [5]) were 8.1%, 39.5% and 139.5%, respectively. For the same compound, the “average increase in hTERT expression” value in assay [2] is recorded as 49.76%. In addition, the “Average phTERT/pCMV ratio” value in assay [1] is listed as 2.16 ± 0.14. Also, in assay [1], the “specificity” value was “highly specific”.
